From US20240228547A1, “POLYPEPTIDE FOR RESISTING NOVEL CORONAVIRUS AND APPLICATION THEREOF” (INSTITUTE OF MICROBIOLOGY, CHINESE ACADEMY OF SCIENCES, priority 2021, published 2024)

Test system: pseudovirus of SARS-CoV-2 original strain (SARS-CoV-2 WT)
Conditions: for IC50: read-out: IC50, inhibitory effect on pseudovirus, Hela hACE2 cells

SMILES | Increase multiple (fold increase in the inhibitory effect compared to the polypeptide P3) | IC50 [nM]
CC[C@H](C)[C@H](NC(=O)CNC(=O)[C@H](CO)NC(=O)[C@@H](NC(=O)[C@H](CC(=O)O)NC(=O)CNC(=O)[C@H](Cc1ccccc1)NC(=O)[C@H](CCCCN)NC(=O)[C@@H](N)C(C)C)[C@@H](C)CC)C(=O)N[C@@H](CC(N)=O)C(=O)N[C@@H](C)C(=O)N[C@@H](CO)C(=O)N[C@H](C(=O)N[C@H](C(=O)N[C@@H](CC(N)=O)C(=O)N[C@H](C(=O)N[C@@H](CCCCN)C(=O)N[C@@H](CCC(=O)O)C(=O)N[C@@H](CCC(=O)O)C(=O)N[C@H](C(=O)N[C@@H](CC(=O)O)C(=O)N[C@@H](CCCNC(=N)N)C(=O)N[C@@H](CC(C)C)C(=O)N[C@@H](Cc1ccc(O)cc1)C(=O)N[C@@H](CCC(=O)O)C(=O)N[C@H](C(=O)N[C@H](C(=O)N[C@@H](CCCCN)C(=O)N[C@@H](CC(N)=O)C(=O)N[C@@H](CC(C)C)C(=O)N[C@@H](CC(N)=O)C(=O)N[C@@H](CCC(=O)O)C(=O)N[C@@H](CO)C(=O)N[C@@H](CC(C)C)C(=O)N[C@H](C(=O)N[C@@H](CC(=O)O)C(=O)N[C@@H](CC(C)C)C(=O)N[C@@H](CCC(N)=O)C(=O)N[C@@H](CCC(=O)O)C(=O)N[C@@H](CC(C)C)C(=O)O)[C@@H](C)CC)C(C)C)C(C)C)[C@@H](C)CC)[C@@H](C)CC)C(C)C)C(C)C [Polypeptide P3-3] | 3.4 | 230
CC[C@H](C)[C@H](N)C(=O)N[C@@H](CO)C(=O)NCC(=O)N[C@H](C(=O)N[C@@H](CC(N)=O)C(=O)N[C@@H](C)C(=O)N[C@@H](CO)C(=O)N[C@H](C(=O)N[C@H](C(=O)N[C@@H](CC(N)=O)C(=O)N[C@H](C(=O)N[C@@H](CCCCN)C(=O)N[C@@H](CCC(=O)O)C(=O)N[C@@H](CCC(=O)O)C(=O)N[C@H](C(=O)N[C@@H](CC(=O)O)C(=O)N[C@@H](CCCNC(=N)N)C(=O)N[C@@H](CC(C)C)C(=O)N[C@@H](CC(N)=O)C(=O)N[C@@H](CCC(=O)O)C(=O)N[C@H](C(=O)N[C@@H](C)C(=O)N[C@@H](CCCCN)C(=O)N[C@@H](CC(N)=O)C(=O)N[C@@H](CC(C)C)C(=O)N[C@@H](CC(N)=O)C(=O)N[C@@H](CCC(=O)O)C(=O)N[C@@H](CO)C(=O)N[C@@H](CC(C)C)C(=O)N[C@H](C(=O)N[C@@H](CC(=O)O)C(=O)N[C@@H](CC(C)C)C(=O)N[C@@H](CCC(N)=O)C(=O)N[C@@H](CCC(=O)O)C(=O)N[C@@H](CC(C)C)C(=O)O)[C@@H](C)CC)C(C)C)[C@@H](C)CC)[C@@H](C)CC)C(C)C)C(C)C)[C@@H](C)CC [Polypeptide P3-4] | 3.3 | 240
CC[C@H](C)[C@H](N)C(=O)N[C@@H](CO)C(=O)NCC(=O)N[C@H](C(=O)N[C@@H](CC(N)=O)C(=O)N[C@@H](C)C(=O)N[C@@H](CO)C(=O)N[C@H](C(=O)N[C@H](C(=O)N[C@@H](CC(N)=O)C(=O)N[C@H](C(=O)N[C@@H](CCC(N)=O)C(=O)N[C@@H](CCCCN)C(=O)N[C@@H](CCC(=O)O)C(=O)N[C@H](C(=O)N[C@@H](CC(=O)O)C(=O)N[C@@H](CCCNC(=N)N)C(=O)N[C@@H](CC(C)C)C(=O)N[C@@H](CC(N)=O)C(=O)N[C@@H](CCC(=O)O)C(=O)N[C@H](C(=O)N[C@@H](C)C(=O)N[C@@H](CCCCN)C(=O)N[C@@H](CCC(=O)O)C(=O)N[C@@H](CC(C)C)C(=O)N[C@@H](CC(N)=O)C(=O)N[C@@H](CCC(=O)O)C(=O)N[C@@H](CO)C(=O)N[C@@H](CC(C)C)C(=O)N[C@H](C(=O)N[C@@H](CC(=O)O)C(=O)N[C@@H](CC(C)C)C(=O)N[C@@H](CCC(N)=O)C(=O)N[C@@H](CCC(=O)O)C(=O)N[C@@H](CC(C)C)C(=O)O)[C@@H](C)CC)C(C)C)[C@@H](C)CC)[C@@H](C)CC)C(C)C)C(C)C)[C@@H](C)CC [Polypeptide P3-5] | 0.5 | 1590
